System: human naïve CD4 T cells
Test: CXCL13 ELISA on supernatants of differentiated CD4 T cells
Format: cell-based
Conditions: plate bound anti-CD3 and ICOS-L, 5 days
Method: Unless differently specified, naïve CD4^+ T cells were enriched from PBMCs by magnetic bead negative selection with the Naïve CD4^+ T Cell Isolation Kit (Stem Cell Technologies). Purity (CD4^+CD45RA^+) was 90% or higher. Cells (7.5×10^4 cells/well) were activated by Dynabeads Human T-Activator CD3/CD28 (2 μl/well, Life Technologies) and cultured with recombinant human/mouse/rat activin A (50 ng/ml or 100 ng/ml), recombinant human IL-12 (5 ng/ml), recombinant human TGFβ (1 ng/ml), recombinant human IL-23 (10 ng/ml) or recombinant human IL-35 (10 ng/ml) in the presence of and recombinant human IL-7 (4 ng/ml) in AIM-V medium (Life Technologies). All cytokines were from R&D System and Peprotech. The 14 kDa mature human beta A chain of human activin A shares 100% amino acid sequence identity with bovine, feline, mouse, porcine, and rat beta A. Phenotype was quantified after 3 or 5 days, as specified in the main text of Figure legends. […] For experiments quantifying supernatant CXCL13 concentration, cells were activated by plate-bound anti-human CD3 (5 μg/ml, BD) and ICOS-L (5 μg/ml, recombinant human B7-H2, R&D). CXCL13 concentrations were determined via human CXCL13 DuoSet ELISA (R&D) on supernatants harvested after 5 days of in vitro culture. […]

**Q.** With “activin A: commercial recombinant cytokine, homodimer of the INHBA gene product (inhibin beta A)” as the substance, how does the “CXCL13 expression / secretion” value read?
**A.** selectively induces CXCL13 expression
